# Data from ChEMBL document CHEMBL4825726, “Structural insights in galectin-1-glycan recognition: Relevance of the glycosidic linkage and the N-acetylation pattern of sugar moieties” (Bioorg Med Chem, 2021).
# Molecular target: T1, Galectin-1 (Homo sapiens, UniProt P09382)
# Experiment: Binding affinity to human Gal-1 assessed as inhibition of Gal-1 binding to immobilized asialofetuin pretreated with Gal-1 for 2 hrs followed by incubation with asialofetuin for 2 hrs by competitive solid phase assay relative to lactose
# Conditions: time 4.0 hrs; call rule not given here
# T1 sequence (P09382 whole entry): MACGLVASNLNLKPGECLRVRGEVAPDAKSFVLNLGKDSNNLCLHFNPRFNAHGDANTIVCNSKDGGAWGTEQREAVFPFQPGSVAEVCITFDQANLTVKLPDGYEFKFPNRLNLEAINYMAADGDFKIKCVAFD
row,Structure (SMILES),Ratio
1,CC(=O)N[C@H]1C(O)O[C@H](CO)[C@@H](O)[C@@H]1O[C@@H]1O[C@H](CO)[C@H](O)[C@H](O)[C@H]1O (stereo partly specified),2.37
2,CC(=O)N[C@H]1C(O)O[C@H](CO)[C@@H](O[C@@H]2O[C@H](CO)[C@H](O)[C@H](O)[C@H]2O)[C@@H]1O (stereo partly specified),2.37

# Other lines, results leading:
row,Ratio,Structure (SMILES)
1,0.22,CC(=O)N[C@H]1[C@H](O[C@H]2[C@H](O)[C@@H](NC(C)=O)C(O)O[C@@H]2CO)O[C@H](CO[C@@H]2O[C@H](CO)[C@H](O)[C@H](O)[C@H]2O)[C@@H](O)[C@@H]1O (stereo partly specified)
2,0.36,CC(=O)N[C@H]1C(O)O[C@H](CO[C@@H]2O[C@H](CO)[C@H](O)[C@H](O)[C@H]2O)[C@@H](O)[C@@H]1O (stereo partly specified)

# Molecular target: T1, Galectin-1
# Experiment: Binding affinity to human Gal-1 assessed as inhibition of Gal-1 binding to immobilized asialofetuin pretreated with Gal-1 for 2 hrs followed by incubation with asialofetuin for 2 hrs by competitive solid phase assay
# Conditions: not given
row,IC50,Structure (SMILES)
1,Not Active,OC[C@H]1O[C@@H](OC[C@H]2OC(O)[C@H](O)[C@@H](O)[C@@H]2O)[C@H](O)[C@@H](O)[C@H]1O (stereo partly specified)

# Same assay, conditions: read-out: IC50
row,Structure (SMILES),IC50 [µM]
1,CC(=O)N[C@H]1C(O)O[C@H](CO)[C@@H](O)[C@@H]1O[C@@H]1O[C@H](CO)[C@H](O)[C@H](O)[C@H]1O (stereo partly specified),2050
2,CC(=O)N[C@H]1C(O)O[C@H](CO)[C@@H](O[C@@H]2O[C@H](CO)[C@H](O)[C@H](O)[C@H]2O)[C@@H]1O (stereo partly specified),1970

# Other lines, results leading:
row,IC50 [µM],Structure (SMILES)
1,21200,CC(=O)N[C@H]1[C@H](O[C@H]2[C@H](O)[C@@H](NC(C)=O)C(O)O[C@@H]2CO)O[C@H](CO[C@@H]2O[C@H](CO)[C@H](O)[C@H](O)[C@H]2O)[C@@H](O)[C@@H]1O (stereo partly specified)
2,13000,CC(=O)N[C@H]1C(O)O[C@H](CO[C@@H]2O[C@H](CO)[C@H](O)[C@H](O)[C@H]2O)[C@@H](O)[C@@H]1O (stereo partly specified)

# Molecular target: T1, Galectin-1
# Experiment: Binding affinity to human Gal-1 assessed as dissociation constant by isothermal titration calorimetry
# Conditions: not given
row,Structure (SMILES),Kd [µM]
1,CC(=O)N[C@H]1C(O)O[C@H](CO)[C@@H](O)[C@@H]1O[C@@H]1O[C@H](CO)[C@H](O)[C@H](O)[C@H]1O (stereo partly specified),161
2,OC[C@H]1O[C@@H](OC[C@H]2OC(O)[C@H](O)[C@@H](O)[C@@H]2O)[C@H](O)[C@@H](O)[C@H]1O (stereo partly specified),1330
3,CC(=O)N[C@H]1C(O)O[C@H](CO)[C@@H](O[C@@H]2O[C@H](CO)[C@H](O)[C@H](O)[C@H]2O)[C@@H]1O (stereo partly specified),96

# The remaining lines, values ahead:
row,Kd [µM],Structure (SMILES)
1,770,CC(=O)N[C@H]1[C@H](O[C@H]2[C@H](O)[C@@H](NC(C)=O)C(O)O[C@@H]2CO)O[C@H](CO[C@@H]2O[C@H](CO)[C@H](O)[C@H](O)[C@H]2O)[C@@H](O)[C@@H]1O (stereo partly specified)
2,499,CC(=O)N[C@H]1C(O)O[C@H](CO[C@@H]2O[C@H](CO)[C@H](O)[C@H](O)[C@H]2O)[C@@H](O)[C@@H]1O (stereo partly specified)

# Molecular target: T1, Galectin-1
# Experiment: Binding affinity to human Gal-1 assessed as Gibbs free energy change by isothermal titration calorimetry
# Conditions: not given
row,Structure (SMILES),deltaG [kcal/mol]
1,CC(=O)N[C@H]1C(O)O[C@H](CO)[C@@H](O)[C@@H]1O[C@@H]1O[C@H](CO)[C@H](O)[C@H](O)[C@H]1O (stereo partly specified),-5.19
2,OC[C@H]1O[C@@H](OC[C@H]2OC(O)[C@H](O)[C@@H](O)[C@@H]2O)[C@H](O)[C@@H](O)[C@H]1O (stereo partly specified),-3.92
3,CC(=O)N[C@H]1C(O)O[C@H](CO)[C@@H](O[C@@H]2O[C@H](CO)[C@H](O)[C@H](O)[C@H]2O)[C@@H]1O (stereo partly specified),-5.47

# Other lines, results leading:
row,deltaG [kcal/mol],Structure (SMILES)
1,-4.25,CC(=O)N[C@H]1[C@H](O[C@H]2[C@H](O)[C@@H](NC(C)=O)C(O)O[C@@H]2CO)O[C@H](CO[C@@H]2O[C@H](CO)[C@H](O)[C@H](O)[C@H]2O)[C@@H](O)[C@@H]1O (stereo partly specified)
2,-4.49,CC(=O)N[C@H]1C(O)O[C@H](CO[C@@H]2O[C@H](CO)[C@H](O)[C@H](O)[C@H]2O)[C@@H](O)[C@@H]1O (stereo partly specified)

# Molecular target: T1, Galectin-1
# Experiment: Binding affinity to human Gal-1 assessed as change in enthalpy by isothermal titration calorimetry
# Conditions: not given
row,Structure (SMILES),deltaH [kcal/mol]
1,CC(=O)N[C@H]1C(O)O[C@H](CO)[C@@H](O)[C@@H]1O[C@@H]1O[C@H](CO)[C@H](O)[C@H](O)[C@H]1O (stereo partly specified),-11.4
2,OC[C@H]1O[C@@H](OC[C@H]2OC(O)[C@H](O)[C@@H](O)[C@@H]2O)[C@H](O)[C@@H](O)[C@H]1O (stereo partly specified),-1.79
3,CC(=O)N[C@H]1C(O)O[C@H](CO)[C@@H](O[C@@H]2O[C@H](CO)[C@H](O)[C@H](O)[C@H]2O)[C@@H]1O (stereo partly specified),-12

# Continued, values first:
row,deltaH [kcal/mol],Structure (SMILES)
1,-3.66,CC(=O)N[C@H]1[C@H](O[C@H]2[C@H](O)[C@@H](NC(C)=O)C(O)O[C@@H]2CO)O[C@H](CO[C@@H]2O[C@H](CO)[C@H](O)[C@H](O)[C@H]2O)[C@@H](O)[C@@H]1O (stereo partly specified)
2,-10.8,OC[C@H]1O[C@@H](O[C@H]2[C@H](O)[C@@H](O)C(O)O[C@@H]2CO)[C@H](O)[C@@H](O)[C@H]1O (stereo partly specified)
3,-4.28,CC(=O)N[C@H]1C(O)O[C@H](CO[C@@H]2O[C@H](CO)[C@H](O)[C@H](O)[C@H]2O)[C@@H](O)[C@@H]1O (stereo partly specified)

# Molecular target: T1, Galectin-1
# Experiment: Binding affinity to human Gal-1 assessed as change in entropy by isothermal titration calorimetry
# Conditions: not given
Structure (SMILES),-TdeltaS [kcal/mol],deltaS [J/mol.K]
CC(=O)N[C@H]1C(O)O[C@H](CO)[C@@H](O)[C@@H]1O[C@@H]1O[C@H](CO)[C@H](O)[C@H](O)[C@H]1O (stereo partly specified),6.21,-87.2
OC[C@H]1O[C@@H](OC[C@H]2OC(O)[C@H](O)[C@@H](O)[C@@H]2O)[C@H](O)[C@@H](O)[C@H]1O (stereo partly specified),-2.13,
CC(=O)N[C@H]1C(O)O[C@H](CO)[C@@H](O[C@@H]2O[C@H](CO)[C@H](O)[C@H](O)[C@H]2O)[C@@H]1O (stereo partly specified),6.55,-91.9

# Results, then the compound that gave them:
-TdeltaS [kcal/mol],deltaS [J/mol.K],Structure (SMILES)
-0.598,8.4,CC(=O)N[C@H]1[C@H](O[C@H]2[C@H](O)[C@@H](NC(C)=O)C(O)O[C@@H]2CO)O[C@H](CO[C@@H]2O[C@H](CO)[C@H](O)[C@H](O)[C@H]2O)[C@@H](O)[C@@H]1O (stereo partly specified)
5.71,-80.2,OC[C@H]1O[C@@H](O[C@H]2[C@H](O)[C@@H](O)C(O)O[C@@H]2CO)[C@H](O)[C@@H](O)[C@H]1O (stereo partly specified)
-0.215,3,CC(=O)N[C@H]1C(O)O[C@H](CO[C@@H]2O[C@H](CO)[C@H](O)[C@H](O)[C@H]2O)[C@@H](O)[C@@H]1O (stereo partly specified)
